Experiments:
Format in all cases: biochemical
[1] = target: T1, acetylcholinesterase (Rattus norvegicus, UniProt P37136); assay: Acetylcholinesterase-inhibiting activity (Test example 1; crude synaptosome fraction of rat cerebrum, modified Ellman method)
T1 construct: a crude synaptosome fraction of a rat cerebrum was used; from tissue; host or cells: rat cerebrum, crude synaptosome fraction
Description: Acetylcholinesterase-inhibiting activity
As an enzyme source, a crude synaptosome fraction of a rat cerebrum was used.
That is, to the crude synaptosome fraction of the rat cerebrum suitably diluted with a 0.1M phosphate buffer were added each compound to be tested, 5,5'-dithiobis(2-nitrobenzoic acid) (hereinafter referred to as DTNB) and acetylthiocholine as a substrate, and the mixture was incubated at 25° C. for a predetermined time.
(§1) Enzyme activity-inhibiting rates were calculated from absorbances in the presence of the compounds to be tested having various concentrations based on absorbances in the absence of the compounds to be tested, with absorbance when reaction was carried out in the absence of the substrate being defined as blank. IC50 values were calculated by Hill analysis.

[2] = target: T2, B type monoamine oxidase (Rattus norvegicus, UniProt P19643); assay: B type monoamine oxidase-inhibiting activity (Test example 3; rat cerebrum homogenate, 14C-β-PEA substrate); conditions: β-PEA 20 μM, preincubated 37° C. 30 minutes, Hill analysis, read-out: IC50 value, Inhibition of B type monoamine oxidase
T2 construct: a rat cerebrum homogenized in a 0.1M phosphate buffer was used; from tissue; host or cells: rat cerebrum homogenate
T2 sequence (P19643 1-520): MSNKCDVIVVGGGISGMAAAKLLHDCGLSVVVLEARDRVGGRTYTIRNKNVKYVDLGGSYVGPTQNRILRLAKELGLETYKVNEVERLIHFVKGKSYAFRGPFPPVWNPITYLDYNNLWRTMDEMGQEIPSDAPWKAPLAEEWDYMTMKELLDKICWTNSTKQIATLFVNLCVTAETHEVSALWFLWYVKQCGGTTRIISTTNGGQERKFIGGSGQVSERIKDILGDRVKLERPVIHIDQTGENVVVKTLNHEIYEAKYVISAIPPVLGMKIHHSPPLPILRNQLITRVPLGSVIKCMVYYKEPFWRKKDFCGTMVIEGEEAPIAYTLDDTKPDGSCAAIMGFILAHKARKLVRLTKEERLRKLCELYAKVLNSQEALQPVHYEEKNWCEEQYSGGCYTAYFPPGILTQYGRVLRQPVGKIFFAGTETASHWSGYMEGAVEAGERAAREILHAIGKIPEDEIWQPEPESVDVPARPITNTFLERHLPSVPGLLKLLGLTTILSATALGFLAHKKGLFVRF
Description: (§2) A type and B type monoamine oxidase-inhibiting activity
(§3) As an enzyme source, a rat cerebrum homogenized in a 0.1M phosphate buffer was used.
(§4) That is, the rat cerebrum homogenate suitably diluted with a 0.1M phosphate buffer and each compound to be tested were preincubated at 37° C. for 30 minutes. […] After the mixture was separated into two layers by centrifugation, a part of the organic layer was mixed with liquid scintillation cocktail. Radioactivity extracted into the organic layer was measured by a liquid scintillation counter to calculate the enzyme activity.
as §1, with “Inhibiting” for “Enzyme activity-inhibiting”, “enzyme activities” for “absorbances”, “homogenate” for “substrate”

[3] = target: T3, A type monoamine oxidase (Rattus norvegicus, UniProt P21396); assay: A type monoamine oxidase-inhibiting activity (Test example 3; rat cerebrum homogenate, 14C-5-HT substrate); conditions: 5-HT 200 μM, preincubated 37° C. 30 minutes, Hill analysis, read-out: IC50 value, Inhibition of A type monoamine oxidase
T3 construct: a rat cerebrum homogenized in a 0.1M phosphate buffer was used; from tissue; host or cells: rat cerebrum homogenate
T3 sequence (P21396 1-526): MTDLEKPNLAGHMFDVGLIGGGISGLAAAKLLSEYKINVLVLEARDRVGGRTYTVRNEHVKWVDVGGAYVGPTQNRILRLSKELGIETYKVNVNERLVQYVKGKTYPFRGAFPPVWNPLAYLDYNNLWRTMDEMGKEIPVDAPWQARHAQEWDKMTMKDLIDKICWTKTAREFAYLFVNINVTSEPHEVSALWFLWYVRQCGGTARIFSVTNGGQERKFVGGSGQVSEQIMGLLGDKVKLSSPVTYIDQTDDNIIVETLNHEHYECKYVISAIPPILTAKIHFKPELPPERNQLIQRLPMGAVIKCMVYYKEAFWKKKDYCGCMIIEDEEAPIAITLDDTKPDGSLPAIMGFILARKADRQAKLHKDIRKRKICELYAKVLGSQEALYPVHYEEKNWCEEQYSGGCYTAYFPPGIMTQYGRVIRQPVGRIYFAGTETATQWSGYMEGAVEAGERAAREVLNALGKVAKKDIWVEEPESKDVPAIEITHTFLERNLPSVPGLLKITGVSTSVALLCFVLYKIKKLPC
Description: as §2, §3, §4
as §1, with “Inhibiting” for “Enzyme activity-inhibiting”, “enzyme activities” for “absorbances”, “homogenate” for “substrate”

[4] = target: T4, butyrylcholinesterase (Rattus norvegicus, UniProt Q9JKC1); assay: Butyrylcholinesterase-inhibiting activity (Test example 2; rat serum, modified Ellman method)
T4 construct: As an enzyme source, a rat serum was used; from tissue; host or cells: rat serum
T4 sequence (Q9JKC1 24-597): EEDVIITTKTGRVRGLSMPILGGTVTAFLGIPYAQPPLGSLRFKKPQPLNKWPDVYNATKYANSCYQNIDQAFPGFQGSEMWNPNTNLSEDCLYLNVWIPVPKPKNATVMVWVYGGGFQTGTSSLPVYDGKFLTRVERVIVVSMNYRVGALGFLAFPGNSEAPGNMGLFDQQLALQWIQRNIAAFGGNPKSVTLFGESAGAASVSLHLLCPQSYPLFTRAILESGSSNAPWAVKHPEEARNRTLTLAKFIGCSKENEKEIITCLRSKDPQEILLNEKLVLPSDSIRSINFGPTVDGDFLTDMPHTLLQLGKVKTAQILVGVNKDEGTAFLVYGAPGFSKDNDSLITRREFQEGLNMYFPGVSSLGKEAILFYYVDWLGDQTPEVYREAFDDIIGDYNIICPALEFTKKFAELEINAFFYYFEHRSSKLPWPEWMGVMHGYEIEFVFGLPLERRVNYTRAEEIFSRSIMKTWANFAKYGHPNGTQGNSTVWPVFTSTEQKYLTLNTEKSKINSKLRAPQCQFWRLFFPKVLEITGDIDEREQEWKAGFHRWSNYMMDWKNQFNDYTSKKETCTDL
Description: Butyrylcholinesterase-inhibiting activity
As an enzyme source, a rat serum was used.
The activity of butyrylcholinesterase was measured by a partially modified method of the above method of Ellman et. al. That is, to the rat serum suitably diluted with a 0.1M phosphate buffer were added each compound to be tested, DTNB and butyrylthiocholine as a substrate, and the mixture was incubated at 25° C. for a predetermined time.
as §1

T1 sequence (P37136 32-614): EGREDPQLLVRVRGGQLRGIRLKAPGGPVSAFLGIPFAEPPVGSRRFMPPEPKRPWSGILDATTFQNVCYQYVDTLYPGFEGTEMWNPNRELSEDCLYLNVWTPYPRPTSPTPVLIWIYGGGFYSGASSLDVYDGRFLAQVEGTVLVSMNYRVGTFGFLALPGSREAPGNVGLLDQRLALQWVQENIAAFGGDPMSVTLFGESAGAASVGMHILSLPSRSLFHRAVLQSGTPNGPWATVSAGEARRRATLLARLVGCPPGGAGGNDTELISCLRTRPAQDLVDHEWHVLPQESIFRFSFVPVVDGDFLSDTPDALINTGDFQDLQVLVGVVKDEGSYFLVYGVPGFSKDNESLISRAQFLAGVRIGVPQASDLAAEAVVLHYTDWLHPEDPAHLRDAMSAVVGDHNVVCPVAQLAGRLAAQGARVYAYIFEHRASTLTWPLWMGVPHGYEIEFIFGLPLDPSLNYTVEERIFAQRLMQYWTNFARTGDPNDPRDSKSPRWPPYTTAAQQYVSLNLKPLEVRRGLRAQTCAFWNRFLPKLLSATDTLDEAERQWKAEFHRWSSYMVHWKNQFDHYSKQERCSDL

| SMILES | IC50 [1] [nM] | IC50 [2] [nM] | IC50 [3] [nM] | IC50 [4] [nM] |
| --- | --- | --- | --- | --- |
| N#Cc1ccc(Nc2ncnc3c2CCC3)cc1 [Compound B, 4-(4-cyanoanilino)-5,6-dihydro-7H-cyclopenta[d]pyrimidine, reference compound] | > 10000 | > 10000 | 160 | > 10000 |
| Cc1ncnc(Nc2ccc(C(=O)/C=C/C3CCN(Cc4ccccc4)CC3)cc2)c1C [Example 1, (E)-N-(5,6-dimethylpyrimidin-4-yl)-4-[3-(1-benzyl-piperidin-4-yl)propenoyl]aniline] | 3.3 | > 10000 | 1600 | > 10000 |
| Cc1ncnc(Nc2ccc(C(=O)CCC3CCN(Cc4ccccc4)CC3)cc2)c1C [Example 2, N-(5,6-dimethylpyrimidin-4-yl)-4-[3-(1-benzylpiperidin-4-yl)propanoyl]aniline] | 3.6 | > 10000 | 890 | > 10000 |
| O=C(/C=C/C1CCN(Cc2ccccc2)CC1)c1ccc(Nc2ncnc3c2CCC3)cc1 [Example 6, (E)-N-(5,6-dihydro-7H-cyclopenta[d]pyrimidin-4-yl)-4-[3-(1-benzylpiperidin-4-yl)propenoyl]aniline] | 3.1 | > 10000 | 220 | > 10000 |
| O=C(CCC1CCN(Cc2ccccc2)CC1)c1ccc(Nc2ncnc3c2CCC3)cc1 [Example 8, N-(5,6-dihydro-7H-cyclopenta[d]pyrimidin-4-yl)-4-[3(1-benzylpiperidin-4-yl)propanoyl]aniline. 2HCl] | 2 | > 10000 | 85 | > 10000 |
| O=C(/C=C/C1CCN(Cc2ccccc2)CC1)c1ccc(Nc2ncnc3c2CCCC3)cc1 [Example 9, (E)-N-(5,6,7,8-tetrahydroquinazolin-4-yl)-4-[3-(1-benzylpiperidin-4-yl)propenoyl]aniline] | 1.4 | > 10000 | 1400 | > 10000 |
| O=C(CCC1CCN(Cc2ccccc2)CC1)c1ccc(Nc2ncnc3c2CCCC3)cc1 [Example 10, N-(5,6,7,8-tetrahydroquinazolin-4-yl)-4-[3-(1-benzyl-piperidin-4-yl)propanoyl]aniline] | 1.1 | > 10000 | 320 | > 10000 |
| O=C1C(=CC2CCN(Cc3ccccc3)CC2)Cc2cc(Nc3ncnc4c3CCC4)ccc21 [Example 21, 4-[1-Oxo-2-(1-benzylpiperidin-4-yl)methyleneindan-5-yl]amino-5,6-dihydro-7H-cyclopenta[d]pyrimidine] | 20 | > 10000 | 600 | > 10000 |
| O=C1c2ccc(Nc3ncnc4c3CCC4)cc2CC1CC1CCN(Cc2ccccc2)CC1 (stereo not drawn) [Example 22, 4-[1-Oxo-2-(1-benzylpiperidin-4-yl)methylindan-5-yl]amino-5,6-dihydro-7H-cyclopenta[d]pyrimidine] | 7.3 | > 10000 | 810 | > 10000 |
| Cc1cncnc1Nc1ccc(C(=O)CC2CCN(Cc3ccccc3)CC2)cc1 [Example 25, N-(5-methylpyrimidin-4-yl)-4-[(1-benzylpiperidin-4-yl)acetyl]aniline] | 250 | 6800 | 340 | > 10000 |
| O=C(CC1CCN(Cc2ccccc2)CC1)c1ccc(Nc2ncnc3c2CCC3)cc1 [Example 26, N-(5,6-dihydro-7H-cyclopenta[d]pyrimidin-4-yl)-4-[(1-benzylpiperidin-4-yl)acetyl]aniline] | 150 | > 10000 | 56 | > 10000 |
| O=C(CCC1CCN(Cc2ccccn2)CC1)c1ccc(Nc2ncnc3c2CCC3)cc1 [Example 53, N-(5,6-dihydro-7H-cyclopenta-[d]pyrimidin-4-yl)-4-{3-[1-(2-pyridylmethyl)piperidin-4-yl]-propanoyl}aniline] | 17 | > 10000 | 85 | > 10000 |
| O=C(CC1CCN(Cc2cccs2)CC1)c1ccc(Nc2ncnc3c2CCC3)cc1 [Example 87, N-(5,6-dihydro-7H-cyclopenta-[d]pyrimidin-4-yl)-4-{[1-(2-thienylmethyl)piperidin-4-yl]-acetyl}aniline] | 270 | > 10000 | 35 | > 10000 |
| Cc1cncnc1Nc1ccc(C(=O)CC2CCN(Cc3cccs3)CC2)cc1 [Example 88, N-(5-methylpyrimidin-4-yl)-4-{[1-(2-thienylmethyl)piperidin-4-yl]acetyl}aniline] | 330 | 2100 | 250 | > 10000 |
| CCc1cncnc1Nc1ccc(C(=O)CC2CCN(Cc3ccccc3)CC2)cc1 [Example 93, N-(5-ethylpyrimidin-4-yl)-4-[(1-benzylpiperidin-4-yl)-acetyl]aniline] | 200 | 7200 | 420 | > 10000 |

— patent US5610303A, “Arylamino pyrimidine compound” (Ube Industries, Ltd., priority 1992, dated 1997)
